Assay results taken from PubChem BioAssay AID248 (DTP/NCI, 2004).
Toxic doses and inconclusive results are not listed. No stated cut-off is given here; in the data, active means T/C of 150% or more; inactive means T/C below 125%.

System: L1210 leukemia ip in BDF1 mice, survival T/C
Test: NCI In Vivo Anticancer Drug Screen. Data for tumor model L1210 Leukemia (intraperitoneal) in B6D2F1 (BDF1) mice
Conditions: endpoint: mean survival time, higher = longer survival
Method in brief: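 Transplantable tumor model; survival measured in treated vs vehicle control mice. Value = treated/control.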

[1] = dose: 50.0 mg/kg/injection, schedule: Q04DX002 (ip), vehicle: saline with Tween-80
[2] = dose: 100.0 mg/kg/injection, schedule: Q04DX002 (ip), vehicle: saline with Tween-80
[3] = dose: 100.0 mg/kg/injection, schedule: Q04DX002 (ip), vehicle: Klucel (hydroxypropylcellulose) (HPC)
[4] = dose: 200.0 mg/kg/injection, schedule: Q04DX002 (ip), vehicle: Klucel (hydroxypropylcellulose) (HPC)
[5] = dose: 400.0 mg/kg/injection, schedule: Q04DX002 (ip), vehicle: Klucel (hydroxypropylcellulose) (HPC)
[6] = dose: 100.0 mg/kg/injection, schedule: Q04DX003 (ip), vehicle: Klucel (hydroxypropylcellulose) (HPC)
[7] = dose: 200.0 mg/kg/injection, schedule: Q04DX003 (ip), vehicle: Klucel (hydroxypropylcellulose) (HPC)

Measured: T/C

S=c1c2ccccc2oc2ccccc12
inactive: [1] 93 % of control | [2] 93 % of control | dose: 200.0 mg/kg/injection, schedule: Q04DX002 (ip), vehicle: saline with Tween-80 87 % of control | dose: 400.0 mg/kg/injection, schedule: Q04DX002 (ip), vehicle: saline with Tween-80 97 % of control

NC(=S)N/N=C(\c1ccc(F)cc1)C1CC1
inactive: dose: 1.0 mg/kg/injection, schedule: Q01DX Z (ip), vehicle: methylcellulose (MC) 92 % of control | dose: 2.0 mg/kg/injection, schedule: Q01DX Z (ip), vehicle: methylcellulose (MC) 101 % of control | dose: 4.0 mg/kg/injection, schedule: Q01DX Z (ip), vehicle: methylcellulose (MC) 97 % of control | dose: 8.0 mg/kg/injection, schedule: Q01DX Z (ip), vehicle: methylcellulose (MC) 93 % of control | dose: 8.0 mg/kg/injection, schedule: Q01DX Z (oral), vehicle: methylcellulose (MC) 100 % of control

Clc1ccc(/C=C/c2nccc(Cl)n2)cc1
inactive: dose: 100.0 mg/kg/injection, schedule: Q04DX003 (ip), vehicle: saline with Tween-80 106 % of control | dose: 200.0 mg/kg/injection, schedule: Q04DX003 (ip), vehicle: saline with Tween-80 106 % of control | dose: 400.0 mg/kg/injection, schedule: Q04DX003 (ip), vehicle: saline with Tween-80 106 % of control

COc1ccc(NC(=O)Nc2ccc(Cl)cc2OC)cc1
inactive: dose: 25.0 mg/kg/injection, schedule: Q04DX002 (ip), vehicle: saline with Tween-80 93 % of control | [1] 96 % of control | [2] 89 % of control

O=C(O)c1ccc(CCc2ccc(Cl)c(S(=O)(=O)F)c2)cc1
inactive: dose: 100.0 mg/kg/injection, schedule: Q01DX001 (ip), vehicle: saline with Tween-80 94 % of control | dose: 200.0 mg/kg/injection, schedule: Q01DX001 (ip), vehicle: saline with Tween-80 92 % of control | dose: 400.0 mg/kg/injection, schedule: Q01DX001 (ip), vehicle: saline with Tween-80 91 % of control

CCOC(=O)c1[nH]c(-c2ccccc2)c(C=O)c1-c1ccccc1
inactive: dose: 100.0 mg/kg/injection, schedule: Q01DX001 (ip), vehicle: Klucel (hydroxypropylcellulose) (HPC) 100 % of control | dose: 200.0 mg/kg/injection, schedule: Q01DX001 (ip), vehicle: Klucel (hydroxypropylcellulose) (HPC) 100 % of control | dose: 400.0 mg/kg/injection, schedule: Q01DX001 (ip), vehicle: Klucel (hydroxypropylcellulose) (HPC) 100 % of control

Cc1nc(-c2ccccc2)no1
inactive: dose: 75.0 mg/kg/injection, schedule: Q01DX009 (ip), vehicle: Klucel (hydroxypropylcellulose) (HPC) 102 % of control | [3] 97 % of control | dose: 150.0 mg/kg/injection, schedule: Q01DX009 (ip), vehicle: Klucel (hydroxypropylcellulose) (HPC) 98 % of control | [4] 102 % of control | dose: 300.0 mg/kg/injection, schedule: Q01DX009 (ip), vehicle: Klucel (hydroxypropylcellulose) (HPC) 101 % of control | [5] 97 % of control

CCOc1cccc2c(=O)c(C(=O)O)cn(CC)c12
inactive: [3] 93 % of control | [4] 107 % of control | [5] 104 % of control

CB1N(c2ccccc2)B(C)N(c2ccccc2)B(C)N1c1ccccc1
inactive: [6] 103 % of control | [7] 93 % of control | dose: 400.0 mg/kg/injection, schedule: Q04DX003 (ip), vehicle: Klucel (hydroxypropylcellulose) (HPC) 97 % of control

CCCCC1(C(C)C)C(=O)NC(=O)N(C)C1=O (stereo not given)
inactive: dose: 75.0 mg/kg/injection, schedule: Q01DX001 (ip), vehicle: saline 100 % of control | dose: 150.0 mg/kg/injection, schedule: Q01DX001 (ip), vehicle: saline 105 % of control

NN1Cc2ccc3c4c(ccc(c24)C1)C=C3
inactive: dose: 15.0 mg/kg/injection, schedule: Q01DX001 (ip), vehicle: carboxymethylcellulose (CMC) 108 % of control | dose: 30.0 mg/kg/injection, schedule: Q01DX001 (ip), vehicle: carboxymethylcellulose (CMC) 97 % of control | dose: 60.0 mg/kg/injection, schedule: Q01DX001 (ip), vehicle: carboxymethylcellulose (CMC) 101 % of control

N/C(=C\C(=O)c1ccccc1)C(=O)c1ccccc1
inactive: [6] 103 % of control | [7] 108 % of control

O=C(Cl)OCCOCCOC(=O)Cl
inactive: dose: 100.0 mg/kg/injection, schedule: Q04DX003 (ip), vehicle: saline 86 % of control | dose: 200.0 mg/kg/injection, schedule: Q01DX009 (ip), vehicle: saline 89 % of control | dose: 200.0 mg/kg/injection, schedule: Q04DX003 (ip), vehicle: saline 94 % of control | dose: 400.0 mg/kg/injection, schedule: Q01DX009 (ip), vehicle: saline 90 % of control | dose: 400.0 mg/kg/injection, schedule: Q04DX003 (ip), vehicle: saline 92 % of control
